{"source": "patent US6924309B2", "about": "(Children, Youth and Women's Health Service Incorporated, priority 1999, dated 2005)", "key": {"[1]": {"assay": "Thin film autoxidation of arachidonic acid with compounds 16-19 (HPLC)", "excerpt": "Subsequently, the autoxidation of compounds 16-19 and their effects on the autoxidation of arachidonic acid were investigated. In these experiments, a thin film assay method was employed. For each reaction, arachidonic acid was mixed with one of the synthetic compounds 16, 17, 18 or 19 at 1:1 ratio with or without the radical initiator, azobisisobutyronitrile (AIBN). A reverse phase HPLC method was used to simultaneously measure the relative amounts of arachidonic acid and the synthetic compounds 16, 17, 18 or 19 recovered following 60 or 70 hours or 7 days of thin film autoxidation."}, "[2]": {"assay": "Petri-dish thin film autoxidation of arachidonic acid with thia fatty acids and sulfides (HPLC)", "description": "A stock solution in dichioromethane (2 ml) containing arachidonic acid 1 (18 mg) and 3-[(3Z,6Z)-nona-3,6dienylthio]propionic acid 106 (18 mg) was prepared with lauric acid (18 mg) as an internal standard. Samples of the stock solution (100 μl) were added to glass Petri-dishes followed by ethanol (400 μl). After evaporation of the solvent, a well-distributed thin film was formed on each Petri-dish. The Petri-dishes were placed in a desiccator, which was then evacuated, filled with oxygen and stored in the darkness. Dishes were removed from the desiccator after 1, 2, 3, 5 and 7 days. The mixture on each dish was redissolved in diethyl ether and transferred to a 2 ml vial. After evaporation of the solvent, the residue was dissolved in the HPLC mobile phase (100 μl) and 10% of the solution was analysed by HPLC using a reverse phase column (octadecylsilane) (4.6 mm×250 mm, 3 μm) and a refractive index detector.\nAutoxidation of arachidonic acid was conducted in the presence of compound 19 and lauric acid. Stock solutions of arachidonic acid, compound 19 and lauric acid in dichloromethane with equal concentrations were added to a 25 ml round-bottomed flask, and the solvent was evaporated to leave a thin film on the internal surface of the flask. The flask was then filled with oxygen and kept in the dark. The percentages of arachidonic acid and compound 19 remaining after 7 days were measured by HPLC. The same assay was carried out simultaneously with several flasks but the results were not reproducible. The variation was attributed to differences in oxygen concentration and the surface area of the thin films formed in the flasks. Therefore, in order to establish a reproducible assay for the analysis of the autoxidation of arachidonic acid, Petri-dishes with uniform size (80 mm in diameter) were used instead of flasks for thin film formation and the oxidation was carried out by placing the Petri-dishes in a dessicator filled with oxygen. To assess this method, thin firms of arachidonic acid with lauric acid as a standard were prepared on six Petri-dishes using identical treatment, and then subjected to oxidation in the same dessicator filled with oxygen. After 24 h, the percentage of arachidonic acid recovered following autoxidation in each Petri-dish was determined by HPLC. […] The advantage of using a Petri-dish over a flask is that the thin films on each Petri-dish are spread over the same area, and each Petri-dish is exposed to oxygen to the same extent.\nUsing the Petri-dish assay method, the effects of the thia PUFAs and sulfides 106 and 108-111, along with compounds 18, 19 and 3-[(Z,Z,Z)-(octadeca-9,12,15-trienylthio)] propionic acid 112 which were available in the laboratory, on the autoxidation of arachidonic acid, were examined. In addition, the stability of these compounds in the presence of arachidonic acid was also investigated. Arachidonic acid and lauric acid as a standard were mixed with each sulfur compound at different ratios and the mixtures were subjected to thin film autoxidation. The mixtures were analysed by HPLC after 1,2,3,5 and 7 days."}, "[3]": {"conditions": "ratio 2:1, with AIBN at 10% the amount of arachidonic acid, 1 day"}, "[4]": {"conditions": "ratio 2:1, with AIBN at 10% the amount of arachidonic acid, 2 days"}, "[5]": {"conditions": "ratio 2:1, with AIBN at 10% the amount of arachidonic acid, 3 days"}, "[6]": {"conditions": "ratio 2:1, with AIBN at 10% the amount of arachidonic acid, 5 days"}, "[7]": {"conditions": "ratio 2:1, with AIBN at 10% the amount of arachidonic acid, 7 days"}, "[8]": {"conditions": "ratio arachidonic acid:compound 1:1, 1 day"}, "[9]": {"conditions": "ratio arachidonic acid:compound 1:1, 2 days"}, "[10]": {"conditions": "ratio arachidonic acid:compound 1:1, 3 days"}, "[11]": {"conditions": "ratio arachidonic acid:compound 1:1, 5 days"}, "[12]": {"conditions": "ratio arachidonic acid:compound 1:1, 7 days"}, "[13]": {"conditions": "ratio arachidonic acid:compound 2:1, 1 day"}, "[14]": {"conditions": "ratio arachidonic acid:compound 2:1, 2 days"}, "[15]": {"conditions": "ratio arachidonic acid:compound 2:1, 3 days"}, "[16]": {"conditions": "ratio arachidonic acid:compound 2:1, 5 days"}, "[17]": {"conditions": "ratio arachidonic acid:compound 2:1, 7 days"}, "[18]": {"conditions": "ratio arachidonic acid:compound 10:1, 1 day"}, "[19]": {"conditions": "ratio arachidonic acid:compound 10:1, 2 days"}, "[20]": {"conditions": "ratio arachidonic acid:compound 10:1, 3 days"}}, "note": "Where two headings read alike, the source gives them in different places.", "data": [{"smiles": "CCCCC/C=C\\C/C=C\\C/C=C\\C/C=C\\CCCCSCCC(=O)O", "note": "[Compound 19]", "values": [{"measurement": "Percentage of arachidonic acid recovered in the presence of the compound", "setting": "[1]; ratio 1:1, 10% AIBN 60 h", "result": 100, "unit": "%"}, {"measurement": "Percentage of compound recovered (with arachidonic acid)", "setting": "[1]; ratio 1:1, 10% AIBN 60 h", "result": 96, "unit": "%"}, {"measurement": "Percentage of arachidonic acid recovered in the presence of the compound", "setting": "[1]; ratio 1:1, no additive 70 h", "result": 101, "unit": "%"}, {"measurement": "Percentage of compound recovered (with arachidonic acid)", "setting": "[1]; ratio 1:1, no additive 70 h", "result": 98, "unit": "%"}, {"measurement": "Percentage of arachidonic acid recovered in the presence of the compound", "setting": "[1]; ratio 1:1, no additive 7 day", "result": 102, "unit": "%"}, {"measurement": "Percentage of compound recovered (with arachidonic acid)", "setting": "[1]; ratio 1:1, no additive 7 day", "result": 96, "unit": "%"}, {"measurement": "Autoxidation of arachidonic acid in the presence of the compound (in words)", "setting": "[1]; ratio 1:1, with or without AIBN", "result": "completely inhibited"}, {"measurement": "Antioxidant effect on autoxidation of arachidonic acid (in words)", "setting": "[2]", "result": "effective antioxidants"}, {"measurement": "Antioxidant effect on autoxidation of arachidonic acid (in words)", "setting": "[2]; 1:1 ratio with arachidonic acid", "result": "almost complete prevention of autoxidation"}, {"measurement": "Antioxidant effect on autoxidation of arachidonic acid (in words)", "setting": "[2]; compound at one-tenth that of arachidonic acid", "result": "very slow over the first 3 days"}, {"measurement": "Arachidonic acid (%) recovered following autoxidation in the presence of the compound", "setting": "[2]; [3]", "result": 100, "unit": "%"}, {"measurement": "Compound (%) recovered following autoxidation with arachidonic acid", "setting": "[2]; [3]", "result": 98, "unit": "%"}, {"measurement": "Arachidonic acid (%) recovered following autoxidation in the presence of the compound", "setting": "[2]; [4]", "result": 98, "unit": "%"}, {"measurement": "Compound (%) recovered following autoxidation with arachidonic acid", "setting": "[2]; [4]", "result": 95, "unit": "%"}, {"measurement": "Arachidonic acid (%) recovered following autoxidation in the presence of the compound", "setting": "[2]; [5]", "result": 94, "unit": "%"}, {"measurement": "Compound (%) recovered following autoxidation with arachidonic acid", "setting": "[2]; [5]", "result": 80, "unit": "%"}, {"measurement": "Arachidonic acid (%) recovered following autoxidation in the presence of the compound", "setting": "[2]; [6]", "result": 49, "unit": "%"}, {"measurement": "Compound (%) recovered following autoxidation with arachidonic acid", "setting": "[2]; [6]", "result": 47, "unit": "%"}, {"measurement": "Arachidonic acid (%) recovered following autoxidation in the presence of the compound", "setting": "[2]; [7]", "result": 35, "unit": "%"}, {"measurement": "Compound (%) recovered following autoxidation with arachidonic acid", "setting": "[2]; [7]", "result": 43, "unit": "%"}, {"measurement": "Arachidonic acid (%) recovered following autoxidation in the presence of the compound", "setting": "[2]; [8]", "result": 99, "unit": "%"}, {"measurement": "Compound (%) recovered following autoxidation with arachidonic acid", "setting": "[2]; [8]", "result": 99, "unit": "%"}, {"measurement": "Arachidonic acid (%) recovered following autoxidation in the presence of the compound", "setting": "[2]; [9]", "result": 100, "unit": "%"}, {"measurement": "Compound (%) recovered following autoxidation with arachidonic acid", "setting": "[2]; [9]", "result": 100, "unit": "%"}, {"measurement": "Arachidonic acid (%) recovered following autoxidation in the presence of the compound", "setting": "[2]; [10]", "result": 99, "unit": "%"}, {"measurement": "Compound (%) recovered following autoxidation with arachidonic acid", "setting": "[2]; [10]", "result": 99, "unit": "%"}, {"measurement": "Arachidonic acid (%) recovered following autoxidation in the presence of the compound", "setting": "[2]; [11]", "result": 99, "unit": "%"}, {"measurement": "Compound (%) recovered following autoxidation with arachidonic acid", "setting": "[2]; [11]", "result": 98, "unit": "%"}, {"measurement": "Arachidonic acid (%) recovered following autoxidation in the presence of the compound", "setting": "[2]; [12]", "result": 98, "unit": "%"}, {"measurement": "Compound (%) recovered following autoxidation with arachidonic acid", "setting": "[2]; [12]", "result": 99, "unit": "%"}, {"measurement": "Arachidonic acid (%) recovered following autoxidation in the presence of the compound", "setting": "[2]; [13]", "result": 100, "unit": "%"}, {"measurement": "Compound (%) recovered following autoxidation with arachidonic acid", "setting": "[2]; [13]", "result": 98, "unit": "%"}, {"measurement": "Arachidonic acid (%) recovered following autoxidation in the presence of the compound", "setting": "[2]; [14]", "result": 99, "unit": "%"}, {"measurement": "Compound (%) recovered following autoxidation with arachidonic acid", "setting": "[2]; [14]", "result": 96, "unit": "%"}, {"measurement": "Arachidonic acid (%) recovered following autoxidation in the presence of the compound", "setting": "[2]; [15]", "result": 100, "unit": "%"}, {"measurement": "Compound (%) recovered following autoxidation with arachidonic acid", "setting": "[2]; [15]", "result": 96, "unit": "%"}, {"measurement": "Arachidonic acid (%) recovered following autoxidation in the presence of the compound", "setting": "[2]; [16]", "result": 98, "unit": "%"}, {"measurement": "Compound (%) recovered following autoxidation with arachidonic acid", "setting": "[2]; [16]", "result": 94, "unit": "%"}, {"measurement": "Arachidonic acid (%) recovered following autoxidation in the presence of the compound", "setting": "[2]; [17]", "result": 97, "unit": "%"}, {"measurement": "Compound (%) recovered following autoxidation with arachidonic acid", "setting": "[2]; [17]", "result": 90, "unit": "%"}, {"measurement": "Arachidonic acid (%) recovered following autoxidation in the presence of the compound", "setting": "[2]; [18]", "result": 99, "unit": "%"}, {"measurement": "Compound (%) recovered following autoxidation with arachidonic acid", "setting": "[2]; [18]", "result": 95, "unit": "%"}, {"measurement": "Arachidonic acid (%) recovered following autoxidation in the presence of the compound", "setting": "[2]; [19]", "result": 99, "unit": "%"}, {"measurement": "Compound (%) recovered following autoxidation with arachidonic acid", "setting": "[2]; [19]", "result": 87, "unit": "%"}, {"measurement": "Arachidonic acid (%) recovered following autoxidation in the presence of the compound", "setting": "[2]; [20]", "result": 87, "unit": "%"}, {"measurement": "Compound (%) recovered following autoxidation with arachidonic acid", "setting": "[2]; [20]", "result": 38, "unit": "%"}, {"measurement": "Arachidonic acid (%) recovered following autoxidation in the presence of the compound", "setting": "[2]; ratio arachidonic acid:compound 10:1, 5 days", "result": 42, "unit": "%"}, {"measurement": "Arachidonic acid (%) recovered following autoxidation in the presence of the compound", "setting": "[2]; ratio arachidonic acid:compound 10:1, 7 days", "result": 17, "unit": "%"}]}]}
